Data taken from patent US20140221490A1, “METHODS OF TREATING PAIN” (Hospira, Inc., priority 2011, published 2014).
Where “and” joins values, the source holds several entries; their conditions need not be identical. Equal entries are not always repeated. Entries after “also recorded” stand apart in the source; their conditions may differ.

Tested on: acute moderate to severe pain after orthopedic surgery
Assay: Multiple-dose randomized double-blind active- and placebo-controlled trial after orthopedic surgery: efficacy (SPID, pain relief, rescue morphine, patient global evaluation)
Assay type: in vivo, human
Procedure: Patients were randomly assigned to diclofenac, ketorolac, or placebo (2:1:1 ratio).
Randomization was stratified by risk group at baseline. The groups were high-risk, non-high-risk, or higher-weight, which was greater than 210 lbs., or 95 kg. Randomization was also stratified by anticipated stay between a long stay, which was longer than 24 hours, versus a shorter stay. The high-risk patients weighed less than 110 lbs.
The diclofenac formulation was Dyloject™. […] Adverse events (adverse effects) were recorded between surgery and randomization, not just after baseline, in order to distinguish treatment-emergent adverse events.
Patients were encouraged to wait at least 30 minutes after study drug initiation to request morphine.
Patients assessed their pain at baseline and at specified time points through the next 24 hours. Those who remained at the site longer assessed their pain every three hours until discharged. Patients returned for follow-up 5-9 days after baseline, and they received a follow-up telephone call 30-37 days after baseline.
Efficacy analyses were conducted using Statistical Analysis Software®, and unless otherwise noted refer to the intent-to-treat population. The analysis of area under the pain intensity difference curve, pain intensity difference, area under the pain relief curve, patient global evaluation, and amount of rescue medication were based on analysis of covariance (ANCOVA) models, with treatment and center as factors and baseline pain as a covariate. Confidence intervals were based on the pooled standard deviation obtained from an ANCOVA model. Treatment differences were tested with linear contrasts.
All testing of statistical significance was 2-sided unless the test performed was inherently 1-sided. […] The area under the pain relief curve was analyzed similarly.
The proportion of patients attaining at least 30% reduction in pain intensity and the frequency of rescue medication use were analyzed with Cochran-Mantel-Haenszel tests, with center as a stratification variable.
For area under the curve calculations, evaluations after the administration of rescue medication or after withdrawal due to adverse events (adverse effects) or lack of efficacy were imputed in accordance with prespecified rules. For post hoc analyses of pain intensity, an even more conservative and simplified set of imputation rules was applied.
This was a multicenter, multiple-dose, multiple-day, randomized, double-blind, active- and placebo-controlled, parallel-group study.
Assignments were made according to a computer-generated random-number code. Randomization was also stratified by risk cohort (high-risk, non-high-risk, or high-weight [≧95 kg]) at baseline (see FIG. 10), and by anticipated long stay (>24 hours) versus shorter stay, resulting in six strata within the randomization schedule.
Patients in all treatment groups received a bolus IV injection every 6 hours until discharge. […] All study drugs were blinded to the investigator and the patient; dose levels of the individual study treatments were not blinded.
Patients were encouraged to wait at least 30 minutes after study drug initiation to request morphine, to allow primary study drug to begin to exert analgesic effects but were never denied.
The primary efficacy measure was the sum of pain intensity differences (SPID) over five intervals: 0-24, 0-48, 0-72, 0-96, and 0-120 hours which was calculated by summing the difference in pain intensity (by a 0-100 visual analog scale) from baseline at designated timepoints.

O=C(c1ccccc1)c1ccc2n1CCC2C(=O)O (stereo not drawn) [Ketorolac, ketorolac tromethamine]
total pain relief vs placebo (0-24, 0-48, 0-72, 0-96, 0-120 hours, P<0.0001): significantly better
mean sum of pain intensity differences (SPID) vs placebo (all time intervals 0-24 to 0-120 hours, P<0.0001): significantly better; also recorded: significantly greater
patients rating their drug as “very good” or “excellent” (patient global evaluation) (at last assessment): 57.6%
SPID scores vs placebo, higher-weight group (diclofenac 50 mg, ketorolac 30 mg, all time intervals, P<0.05): better with both diclofenac 50 mg and ketorolac 30 mg compared with placebo
patients achieving clinically meaningful pain reduction (≧30% reduction in intensity) (dose by risk cohort, IV every 6 hours): 75%
amount of morphine used (elderly patients, low dose (diclofenac 18.75 mg, ketorolac 15 mg)): 14.9 mg
median time from administration of study drug to administration of rescue medication (human, in vivo): 137.0 min and 137 min
time at which pain intensity difference first significantly differed from placebo (onset of analgesia) (human, in vivo): 30 min
total rescue morphine requirement (over the first five days): 18.1 mg
